Assay results from patent publication US8404655B2, “Inhibition of palmitoyl acyl transferase expression and/or activity for the regulation of antiproliferative factor activity” (University of Florida Research Foundation, Inc., priority 2007, dated 2013).

What was measured:
[1] = test system: CKAP4/p63; experiment: Immunofluorescent localization of CKAP4/p63 in HeLa cells; type: cell-based, human; conditions: APF 20 nM, 48 hours
Method: Double stranded siRNA targeting ZDHHC2 was purchased from Dharmacon. HeLa cells or cells explanted from IC patients (IC cells) were trypsinized for 10 minutes at room temperature, centrifuged in growth medium (MEM with 10% heat inactivated FBS, 1% antibiotic/antimycotics solution, and 1% L glutamine), and the cell pellet was resuspended in serum-free medium at a density of 1×10^4 cells/ml. One mL of the cell suspension was then transferred to a sterile 2 mm cuvette with 20 μM siRNA, and electroporated at 160 V/500 μF capacitance using a BioRad Gene Pulser Xcell. HeLa cells were then plated onto a 96 well plate for the thymidine incorporation assay, and both HeLa and IC cells were plated onto an 8 well Lab-Tek tissue culture slide for confocal microscopy.
For confocal microscopy, after 96 hours of incubation the medium was removed from the wells and cells were fixed using ethanol/acetone (1:1) for 15 min at room temperature, washed three times with 1×PBS, and incubated with mouse monoclonal anti-CKAP4/p63 antibodies (“anti-CLIMP-63”, clone G1/296; Alexis Biochemicals) in PBS, for 2 hrs at 37° C. Cells were then washed three times with PBS and further incubated with fluorescein isothiocyanate (FITC)-labeled secondary antibody diluted in PBS (goat anti-Mouse IgG 1:2000; Zymed) for 2 hrs at 37° C. […]

[2] = test system: vimentin mRNA; experiment: Quantitative real-time PCR of vimentin mRNA in NB cells; type: cell-based, human; conditions: 2.5 nM APF alone or with nonsense siRNA, 48 hours, normalized to β-actin
Method: (§1) RNA was assessed by visualization of the 28S/18S ribosomal RNA ratio on a 1% agarose gel, and total RNA concentration determined by measuring the absorbance of each sample at 260 nm and 280 nm using a Gene Quant RNA/DNA Calculator (Pharmacia Biotech). Quantitative real-time PCR for gene expression was performed using Quantitect Primers (Qiagen), SYBR Green RT-PCR kit reagents (Qiagen), and a Roche System II Light-Cycler (software version 3.5). Samples were tested in triplicate runs, and specific mRNA levels quantified and compared to mRNA levels for β-actin using real-time PCR analysis software from Applied Biosystems.

[3] = test system: vimentin; experiment: Western blot of vimentin protein in HeLa cells; type: cell-based, human; conditions: APF 20 nM, 48 hours
Method: Western Blot Analysis—Cells were lysed in ice-cold RIPA buffer containing protease inhibitors (Pierce), sonicated, and centrifuged for 15 minutes at 4° C. The supernatant protein concentration was measured using a Folin reagent-based protein assay kit (BioRad). Proteins were separated by electrophoresis using 4-12% NuPAGE Novex Bis-Tris polyacrylamide gels in MOPS running buffer (Invitrogen) and then transferred to nitrocellulose. Membranes were blocked for 2 hours at room temperature in TBST buffer (Tris-buffered saline, pH 7.4, with 0.1% Tween 20) containing 5% nonfat milk and incubated with specific antibodies against vimentin (diluted 1:2000; BD Pharmingen) or ZO-1 (diluted 1:125; Zymed) overnight at 4° C. The membranes were subsequently washed with TBST, incubated for 1 hour at room temperature in HRP-conjugated goat anti-mouse (diluted 1:4000, Santa Cruz Biotechnology) or goat anti-rabbit (diluted 1:10000; Pierce) secondary antibodies, and developed by enhanced chemiluminescence (Pierce). To assess equal loading of protein, the membranes were stripped and reprobed for β-actin (diluted 1:5000; Sigma). […] The protein bands of interest were quantified using ImageJ and the integrated signal densities normalized first to β-actin (the loading control) and subsequently expressed in terms of the fractional abundance relative to untreated control cells.

[4] = test system: HeLa cells; experiment: 3H-thymidine incorporation (cell proliferation), HeLa cells; type: cell-based, human; conditions: APF 0.25-250 nM, 48 hours, serum starvation
Method: Cell proliferation was measured by 3H-thymidine incorporation into ZDHHC2 siRNA-treated HeLa cells. Briefly, electroporated cells that received ZDHHC2 or control nonsense siRNA were plated into 96 well culture plates and incubated at 37° C. in a 5% CO2 atmosphere for 96 hours. Purified lyophilized synthetic APF was re-suspended in acetonitrile/distilled water (1:1), diluted in serum-free MEM (containing only glutamine and antibiotics/antimycotics), and applied to HeLa cells; cell controls received acetonitrile/distilled water diluted in serum-free MEM alone. Cells were then incubated for an additional 48 hours. The cell contents were harvested and methanol-fixed onto glass fiber filter paper, and the amount of radioactivity incorporated determined. Significant inhibition of ^3H-thymidine incorporation was defined as a mean decrease in counts per minute of greater than 2 standard deviations from the mean of control cells for each plate.
siRNA—Double-stranded siRNA targeting ZDHHC2 (available from GenBank/EMBL/DDBJ under accession no. NM_016353) was purchased from Dharmacon (ON-TARGET plus). […]
^3H-Thymidine Incorporation—Cell proliferation was measured by 3H-thymidine incorporation into the DNA of HeLa or NB epithelial cells. […] The cell contents were harvested and methanol-fixed onto glass fiber filter paper, and the amount of radioactivity incorporated determined. […]

[5] = test system: E-cadherin mRNA; experiment: Quantitative real-time PCR of E-cadherin mRNA in NB cells; type: cell-based, human; conditions: 2.5 nM APF alone or with nonsense siRNA, 48 hours
Method: as §1

[6] = test system: normal primary bladder (NB) epithelial cells; experiment: 3H-thymidine incorporation (cell proliferation), NB epithelial cells; type: cell-based, human; conditions: APF 0.25-250 nM, 48 hours, serum starvation
Method: Normal primary bladder (NB) epithelial cells were isolated from patients as previously described (Conrads et al., 2006; Keay et al., 2000; Keay et al., 2004; Keay et al., 1996). Cells were propagated in DMEM-F12 (Media-Tech) with 10% heat inactivated FBS, 1% antibiotic/antimycotic solution, 1% L-glutamine, 0.25 U/ml insulin (Sigma), and 5 ng/ml human epidermal growth factor (R & D Systems) at 37° C. in a 5% CO2 atmosphere, and characterized by binding of AE-1/AE-3 pancytokeratin antibodies (Signet) as previously described (Keay et al., 1996; Keay et al., 2004).
^3H-Thymidine Incorporation—Cell proliferation was measured by 3H-thymidine incorporation into the DNA of HeLa or NB epithelial cells. […] Cells were then incubated at 37° C. in a 5% CO2 atmosphere for 48 hours. The cell contents were harvested and methanol-fixed onto glass fiber filter paper, and the amount of radioactivity incorporated determined. Significant inhibition of ^3H-thymidine incorporation was defined as a mean decrease in counts per minute of greater than 2 standard deviations from the mean of control cells for each plate.

[7] = test system: ZO-1 mRNA; experiment: Quantitative real-time PCR of ZO-1 mRNA in NB cells; type: cell-based, human; conditions: 2.5 nM APF alone or with nonsense siRNA, 48 hours, normalized to β-actin
Method: as §1

[8] = test system: bladder epithelial cell; conditions: cited from earlier work

Sialoglycopeptide: sialic acid α-2,3 galactose β1-3-N-acetylgalactosamine α-O-linked to N-terminal threonine of Frizzled 8 nonapeptide (TVPAAVVVA) [APF, antiproliferative factor]
CKAP4 localization after APF treatment [1]: translocated to the nucleus and nucleolus | reduction of vimentin mRNA levels [2]: ~97% | expression of vimentin following APF treatment [3]: reduced | inhibition of HeLa cell proliferation (3H-thymidine incorporation) [4]: concentration dependent manner | change of E-cadherin mRNA levels [5]: dramatically increased | inhibition of NB cell proliferation (3H-thymidine incorporation) [6]: concentration dependent manner | reduction of ZO-1 mRNA levels [7]: ~93% | EC50 (potency of APF) [8]: picomolar range
